Test results reported in patent publication US20140163082A1, “PYRAZOLYL COMPOUNDS FOR USE IN REVERSING REACTIVE GLIOSIS” (priority 2011, published 2014).

How the values were obtained:
[1] = test system: human retinal microvascular EC; settings: refs [16, 17, 18]; cited from earlier work
[2] = test system: ischemic retinas of the OIR mouse model; settings: refs [16, 18]; cited from earlier work
[3] = test system: retinal NV in OIR mouse model; assay type: in vivo
Protocol: (§1) Retinal NV was induced in newborn mice as described previously. Briefly, P7 mice were exposed with their nursing mother, for 5 days [between P7 and P12] to hyperoxic conditions, by incubating them in an airtight chamber [PROOX 110 chamber O2 controller; Biospherix Ltd., Redfield, N.Y.] ventilated by a mixture of O2 and air to a final oxygen fraction of 75±2%. These incubation conditions induced vaso-obliteration and subsequent cessation of vascular development in the capillary beds of the central retina. At P12, the mice were allowed to recover in normal room air conditions and maintained for another 5 days [till P17], the day in which peak disease occurs. A condition of relative hypoxia resulted between P12 and P17, and extensive retinal NV developed in 100% of the mice. Age-matched animals with the hyperoxia-exposed groups were maintained identically, except they were exposed to room air […], 79% N2] for the entire duration of the experiment. All animals were examined and sacrificed on the same days.
(§2) A group of hyperoxia-exposed animals [n=15] were injected intravitreally [into both eyes] at P12 and P15 with 3 μl of YC-1 [100 μM] [drug-treated group]. Another group of hyperoxiaexposed mice [n=15] were injected intravitreally [into both eyes] at P12 and P15 with 3 μl of DMSO [0.2% [v/v]] [mock-treated group]. Non-treated mice grown under ambient conditions, non-treated hyperoxia-exposed mice, DMSO-treated hyperoxia-exposed mice and YC-1-treated hyperoxia-exposed mice, were all examined at different critical time points for qualitative assessment of the retinal vasculature by fluorescein angiography.
Deep anesthesia was induced by intraperitoneal injection of ketamine [1%], xylazine [0.1%], and sodium chloride [0.9%] in a concentration of 0.1 mL/10 g mouse body weight. Sternotomy was performed, the mice were perfused through the left ventricle with 600 μL of high-molecular-mass [2×106 Da] FITC-dextran in PBS [50 mg/ml], which was allowed to circulate for 2 minutes before the animals were euthanatized and the eyes enucleated and the flat mounts were prepared. Subsequent to retinal extraction, all retinas were fixed in 4% paraformaldehye for 24 hrs at 4° C. A dissecting microscope was used to dissect the cornea with a circumferential limbal incision, followed by removal of the lens and vitreous. Microscissors were used to make four radial incisions of the retinal eyecup in order to prepare retinal flat mounts on glass slides. Flat mounts were immersed in Aquamount mounting medium [Polysciences, Warrington, Pa.], coverslips were carefully placed over the retina, and the edges of the coverslips were sealed.
Images of the perfused retinas were captured with a fluorescence microscope [Zeiss Axiovert 135, Thornwood, N.Y.], and images were captured in a digital format in a 10× and 100× objectives using a digital camera [AxioCam, NY]. The extent of retinal NV was then quantified by Metamorph™ imaging software [Universal Imaging, Sunnyvale, Calif.]. Briefly, the entire retina was outlined to distinguish the total retinal area of each eye. Then, the images were thresholded to emphasize only the FITC-perfused vessels. This permitted the measurement of total BV area of each retina and the percentage of each retina that is engrossed with BVs. The entire mounted retinas were analyzed in a masked fashion [three observers] to minimize sampling bias. The total vascularized area was then normalized to the total retinal area and the percentage of the retina covered by vessels was calculated. The vascular area was quantified by setting a threshold level of fluorescence, above which only vessels were captured [density slicing]. The total surface area of the retina was outlined using the outermost vessel of the arcade near the ora serrata as the border. The central capillary dropout area was quantified from the digital images in masked fashion. […]

[4] = test system: ischemic retinas; test: Real time RT-PCR analysis, in vivo (OIR retinas); set-up: species or system C57BL/6J mice; settings: OIR mice
From the text: mRNA levels for HIF-1, VEGF, PDGF-B, GFAP and iNOS were quantified by Real time RTPCR. We used the primers summarized in [FIG. 6C] for RT-PCR. Gene-specific molecular beacons and primers were designed to encompass the genes of interest, with beacon's annealing site to overlap with the exon-exon junctions for additional specificity [Beacon Designer 6.0, Premier Biosoft International, Palo Alto, Calif., USA]. Threshold cycle [Ct] values for the different samples were utilized for the calculation of gene expression fold change using the formula 2 to the minus power of delta delta ct. Fold changes in the HIF-1, VEGF, PDGF-B, GFAP and iNOS gene relative to the β-actin endogenous control gene were determined by the following equation: fold change=2−Δ[ΔC T], where change in threshold cycle [ΔCT]=CT [gene of interest]−CT [β-actin] and Δ [ΔCT]=ΔCT [treated]−ΔCT [untreated].
as §1, §2

[5] = 100 μM YC-1, vs DMSO-treated retinas

OCc1ccc(-c2nn(Cc3ccccc3)c3ccccc23)o1 [YC-1, 3-(5′-hydroxymethyl-2′-furyl)-1-benzylindazole]
HIF-1α, HIF-2α, VEGF, EPO, ET-1, and MMP-9 protein levels [1]: down-regulates
HIF-1 and other proangiogenic factors [VEGF, MMP-9, ET-1, and EPO] [2]: inhibits
retinal vasodilation (vessel diameters) ([3]; OIR mice, dual injection P12 and P15, P17): inhibited oxygen-injury-induced vasodilation
area of pre-retinal neovascular tufts ([3]; OIR mice, dual injection, P17, vs DMSO-treated group): significantly decreased
tortuosity index of retinal vessels ([3]; OIR mice, dual injection, P17, DMSO 1.059, normoxic 1.019): 1.026±0.001
number of BV tufts/flat mount ([3]; OIR mice, dual intravitreal injection P12 and P15, P17, n=15, DMSO 198): 3.0±1.1
vascularized regions, share of the total size of the retina ([3]; OIR mice, dual intravitreal injections, P17, DMSO 70%, normoxic ~99%): ~97%
capillary-free (avascularized) regions, share of the size of the entire retina ([3]; OIR mice, intravitreal 3 μl YC-1 100 μM at P12 and P15, P17, DMSO-treated 30%): 2.2%±0.1
retinal vaso-obliteration ([3]; OIR mice, vs obliterated areas of DMSO-treated retinas): significantly inhibited the retinal vaso-obliteration
toxic effects on the retinal vasculature ([3]; mouse, in vivo): No obvious toxic effects
PDGF-B message (mRNA) level in retina [4, 5]: significantly attenuated
VEGF message (mRNA) level in retina [4, 5]: significantly attenuated
iNOS message (mRNA) level in retina [4, 5]: significantly attenuated
HIF-1α message (mRNA) level in retinal tissue ([4]; YC-1): did not have any influence
GFAP message (mRNA) level in retina ([4]; YC-1 dual injection, vs DMSO, normalized to β-actin): significantly attenuated
